Active and inactive are the calls of the source. No cut-off for these calls is given here.
Legend:
[1] = Induction of ROS generation in methanol solution assessed as reduction in DPBF absorption peak at 10 uM irradiated with 650 nm 10 mW/cm2 light for upto 9 mins by DPBF probe based UV-vis absorption spectra analysis; format: functional
[2] = Induction of ROS generation in methanol solution assessed as increase in singlet oxygen level by measuring reduction in ABDA absorption peak at 10 uM irradiated with 650 nm 10 mW/cm2 light for upto 9 mins by ABDA probe based UV-vis absorption spectra analysis; format: functional
[3] = Induction of ROS generation in methanol solution assessed as increase in superoxide anion radical level by measuring increase in DHR123 fluorescence intensity at 10 uM irradiated with 650 nm 10 mW/cm2 light for upto 15 mins by DHR123 probe based fluorescence spectra analysis; format: functional
SK-MEL-28 [4] = assay: (§1) Cytotoxicity against human SK-MEL-28 cells assessed as reduction in cell viability at 0.008 to 1 uM preincubated for 24 hrs under normoxic condition followed by media removal and irradiated with 650 nm 10 mW/cm2 light for 15 mins under normoxic condition prior to media replacement and measured after 24 hrs by MTT assay; format: functional, cell-based; conditions: dose 0.008-1 µM
SK-MEL-28 [5] = assay: as §1, with “hypoxic” for “normoxic”; format: functional, cell-based; conditions: dose 0.008-1 µM
SK-MEL-28 [6] = assay: as §1, with “viability” for “viability at 0.008 to 1 uM”; format: functional, cell-based; conditions: SK-MEL-28, light or radiation study
SK-MEL-28 [7] = assay: as §1, with “viability” for “viability at 0.008 to 1 uM”, “hypoxic” for “normoxic”; format: functional, cell-based; conditions: SK-MEL-28, light or radiation study
SK-MEL-28 [8] = assay: Cytotoxicity against human SK-MEL-28 cells assessed as reduction in cell viability by MTT assay; format: functional, cell-based

Row | SMILES | Activity [1] | Activity [2] | Activity [3] | Activity (SK-MEL-28 [4]) | Activity (SK-MEL-28 [5]) | IC50 (SK-MEL-28 [6]) [µM] | IC50 (SK-MEL-28 [7]) [µM] | IC50 (SK-MEL-28 [8]) [µM]
1 | CCN(CC)c1ccc2nc3c4ccccc4/c(=N\CCCCCCn4cc(CCCCNC(=O)c5cc(Oc6ccc(NC(=O)Nc7ccc(Cl)c(C(F)(F)F)c7)cc6)ccn5)nn4)cc-3sc2c1 | Active | inactive | Active | Active | Active | – | – | –
2 | CCN(CC)c1ccc2nc3c4ccccc4/c(=N\CCCCCCNC(=O)CCC(=O)Nc4cccc(-c5cn(Cc6ccc(-c7ccc(OC)nc7)cc6)nn5)c4)cc-3sc2c1 | Active | inactive | Active | – | – | – | – | –
3 | CCN(CC)c1ccc2nc3c4ccccc4/c(=N\CCCCCC(=O)Nc4cccc(-c5cn(Cc6ccc(-c7ccc(OC)nc7)cc6)nn5)c4)cc-3sc2c1 | Active | inactive | Active | – | – | – | – | –
4 | CCN(CC)c1ccc2nc3c4ccccc4/c(=N\CCCCCCn4cc(CCCC(=O)Nc5cccc(-c6cn(Cc7ccc(-c8ccc(OC)nc8)cc7)nn6)c5)nn4)cc-3sc2c1 | Active | inactive | Active | – | – | – | – | –
5 | CCN(CC)c1ccc2nc3c4ccccc4/c(=N\CCCCCCN=[N+]=[N-])cc-3sc2c1 | Active | inactive | Active | – | – | – | – | –
6 | CCN(CC)c1ccc2nc3c4ccccc4/c(=N\CCCCCC(=O)NCCCNC(=O)c4cc(Oc5ccc(NC(=O)Nc6ccc(Cl)c(C(F)(F)F)c6)cc5)ccn4)cc-3sc2c1 | Active | inactive | Active | Active | Active | – | – | –
7 | CCN(CC)c1ccc2nc3c4ccccc4/c(=N\CCCCCCn4cc(CCNC(=O)c5cc(Oc6ccc(NC(=O)Nc7ccc(Cl)c(C(F)(F)F)c7)cc6)ccn5)nn4)cc-3sc2c1 | Active | inactive | Active | Active | Active | – | – | –
8 | CCN(CC)c1ccc2nc3c4ccccc4/c(=N\CCCCCCN)cc-3sc2c1 | Active | inactive | Active | – | – | 14.2 | > 20 | –
9 | CCN(CC)c1ccc2nc3c4ccccc4/c(=N\CCCCCC(=O)O)cc-3sc2c1 | Active | inactive | Active | – | – | – | – | –
10 | CCN(CC)c1ccc2nc3c4ccccc4/c(=N\CCCCCCn4cc(CCC(=O)Nc5cccc(-c6cn(Cc7ccc(-c8ccc(OC)nc8)cc7)nn6)c5)nn4)cc-3sc2c1 | Active | inactive | Active | – | – | – | – | –
11 | CCN(CC)c1ccc2nc3c4ccccc4/c(=N\CCCCCCn4cc(CNC(=O)c5cc(Oc6ccc(NC(=O)Nc7ccc(Cl)c(C(F)(F)F)c7)cc6)ccn5)nn4)cc-3sc2c1 | Active | inactive | Active | Active | Active | – | – | –
12 | CNC(=O)c1cc(Oc2ccc(NC(=O)Nc3ccc(Cl)c(C(F)(F)F)c3)cc2)ccn1 [SORAFENIB] | – | – | – | – | – | – | – | 9.49
13 | CCN(CC)c1ccc2nc3c4ccccc4/c(=N\CCCCCC(=O)NCCNC(=O)c4cc(Oc5ccc(NC(=O)Nc6ccc(Cl)c(C(F)(F)F)c6)cc5)ccn4)cc-3sc2c1 | Active | inactive | Active | Active | Active | – | – | –
14 | CCN(CC)c1ccc2nc3c4ccccc4/c(=N\CCCCCCNC(=O)CC(=O)Nc4cccc(-c5cn(Cc6ccc(-c7ccc(OC)nc7)cc6)nn5)c4)cc-3sc2c1 | Active | inactive | Active | – | – | – | – | –

From ChEMBL document CHEMBL5579815, “Novel angiogenesis inhibitors with superoxide anion radical amplification effect: Surmounting the Achilles' heels of angiogenesis inhibitors and photosensitizers” (Eur J Med Chem, 2024)
